The text below walks through data of ChEMBL document CHEMBL1155710, “New bioactive sulfated metabolites from the Mediterranean tunicate Sidnyum turbinatum” (J Nat Prod, 2001).

One may read the IC50 as the point on the concentration scale where inhibition reaches its midpoint.

In this test the test system is WEHI-164. The test is described as follows: Antiproliferative activity against mouse WEHI164 cells assessed as cell viability after 96 hrs by MTT assay. The class given is functional, cell-based. The conditions noted are these: WEHI-164, 96 h. A general note: Tetrazolium dyes change colour on reduction, which living cells bring about.

Turning to `CC(C)CCCC(CCCC(C)CCC[C@H](C)COS(=O)(=O)[O-])COS(=O)(=O)[O-].[Na+].[Na+]` (stereo not given in full), the IC50 is 230 µg/mL.

For `CC(C)CCCC(CCCC(C)CCCC(C)CCOS(=O)(=O)[O-])COS(=O)(=O)[O-].[Na+].[Na+]` (stereo not given), the IC50 came to 300 µg/mL.

Consider `CCCCCCCCCCCCCCCCCOS(=O)(=O)[O-].[Na+]` [SODIUM HEPTADECYL SULFATE], for which the IC50 amounted to 400 µg/mL.

Regarding `CCCCCCOS(=O)(=O)[O-].[Na+]` [SODIUM HEXYL SULFATE], the IC50 was 150 µg/mL.

On to `CCCCCCCCCCCCCCCCCCOS(=O)(=O)[O-].[Na+]` [SODIUM OCTADECYL SULFATE], for which the IC50 turned out to be 410 µg/mL.
